Results on 3 compounds are retold here after ChEMBL document CHEMBL1165961, “Fijiolides A and B, inhibitors of TNF-alpha-induced NFkappaB activation, from a marine-derived sediment bacterium of the genus Nocardiopsis” (J Nat Prod, 2010).

Holding throughout (assay type): cell-based
The test system of one experiment is HEK293. The experiment is described as follows: (§1) Inhibition of NF-kappaB activity in TNF-alpha-induced human HEK293 cells by luciferase assay. The conditions noted are these: dose or concentration not given here.
Experiment [1] has as its target NAD(P)H dehydrogenase [quinone] 1 (Mus musculus) (UniProt Q64669). The experiment is described as follows: Induction of NADPH-dependent quinone reductase activity in mouse Hepa-1c1c7 cells at 28.4 uM after 48 hrs by MTT assay. A general note: Tetrazolium dyes change colour on reduction, which living cells bring about.
The target is the same in experiment [2]. As to the kind of experiment: Induction of NADPH-dependent quinone reductase activity in mouse Hepa-1c1c7 cells assessed as concentration to double activity after 48 hrs by MTT assay.
The nature of experiment [3]: as §1.
Experiment [4] addresses NAD(P)H dehydrogenase [quinone] 1 (Mus musculus) (UniProt Q64669). The experiment is described as follows: Induction of NADPH-dependent quinone reductase activity in mouse Hepa-1c1c7 cells assessed as induction ratio at 28.4 uM after 48 hrs by MTT assay relative to DMSO control.

The source made the active and inactive calls. No cut-off for these calls is given here.

Sequence of NAD(P)H dehydrogenase [quinone] 1 (Mus musculus) (Q64669 whole entry): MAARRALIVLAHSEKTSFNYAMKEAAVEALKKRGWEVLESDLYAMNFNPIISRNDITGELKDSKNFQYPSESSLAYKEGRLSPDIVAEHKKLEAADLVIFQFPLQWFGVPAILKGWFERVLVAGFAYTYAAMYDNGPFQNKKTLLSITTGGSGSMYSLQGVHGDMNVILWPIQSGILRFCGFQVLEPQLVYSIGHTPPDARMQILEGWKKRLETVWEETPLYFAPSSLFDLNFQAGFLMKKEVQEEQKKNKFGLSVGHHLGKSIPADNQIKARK

In general, inhibition refers to the change of the read-out against control, counted positive when it falls. `CN(C)[C@H]1[C@@H](O)[C@@H](O)[C@H](O[C@]23C=CC=C2c2c4ccc(c2Cl)[C@@H](O)COC(=O)C[C@H](N)c2cc(O)c(c(Cl)c2)O[C@H]43)OC1(C)C` yielded an inhibition in the experiment with HEK293 of 46.5%. In addition, the outcome in experiment [1] was inactive.

Turning to `O=c1cc(-c2ccc(Br)cc2)oc2ccccc12`, the CD in experiment [2] came to 0.013 µM.

Usually IC50 stands for the concentration that inhibits the measured activity by half. As to `CC(=O)N[C@H]1CC(=O)OC[C@H](O)c2ccc3c(c2Cl)C2=CC=C[C@]2(O[C@@H]2OC(C)(C)[C@@H](N(C)C)[C@@H](O)[C@H]2O)[C@@H]3Oc2c(O)cc1cc2Cl` [FIJIOLIDE A], in experiment [3], the IC50 was found to be 570 nM. The same compound registered an inhibition in the experiment on HEK293 of 70.3%. Moreover, in experiment [2], the CD is 1.8 µM. In experiment [4], the Ratio came to 3.5.
